1 molecule from patent US12473296B2, “Perk inhibiting compounds” (HiberCell, Inc., priority 2019, dated 2025) can be followed below.

The structures appear in SMILES notation.

Assay [1] addresses EIF2AK3 (PERK) catalytic domain (amino acids 536-1116) (Homo sapiens (Human), UniProt Q9NZJ5). Description: PERK in vitro activity assay (isolated), TR-FRET kinase assay. Particulars: isolated PERK enzyme, 1.5 μM ATP, GFP-eIF2a substrate; read-out: Biochemical IC50. The method, boiled down: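 Human PERK catalytic domain (aa 536-1116) with 100-200 nM GFP-eIF2a in 50 mM HEPES pH 7.5, 10 mM MgCl2, 1.0 mM EGTA, 0.01% Brij-35; enzyme-started reaction run 45 min at room temperature. Stopped with 10 mM EDTA, 2 nM Tb-anti-phospho-eIF2a added for 90 min; IC50 from TR-FRET ratio by 4-parameter logistic fit.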
Background: TR-FRET usually uses a lanthanide donor and a delayed reading to cut background.

The next assay has as its target PERK (Homo sapiens (Human), UniProt Q9NZJ5). Description: PERK cellular assay (TR-FRET, HEK293-EGFP-eIF2α cells, tunicamycin-induced ER stress). Type of assay: cell-based. Particulars: tunicamycin 2 hours, read-out: Cellular IC50 (μM) (EIF2a). The essentials: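 After 2 h tunicamycin ([…]) stress following 30 min compound pretreatment at 37 °C, lysed HEK293-EGFP-eIF2α cells were read by TR-FRET. IC50 derived by 4-parameter logistic fitting of percent inhibition, DMSO-normalized, from 10-point 3-fold dilutions.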

PERK, sequence (Q9NZJ5 30-1116): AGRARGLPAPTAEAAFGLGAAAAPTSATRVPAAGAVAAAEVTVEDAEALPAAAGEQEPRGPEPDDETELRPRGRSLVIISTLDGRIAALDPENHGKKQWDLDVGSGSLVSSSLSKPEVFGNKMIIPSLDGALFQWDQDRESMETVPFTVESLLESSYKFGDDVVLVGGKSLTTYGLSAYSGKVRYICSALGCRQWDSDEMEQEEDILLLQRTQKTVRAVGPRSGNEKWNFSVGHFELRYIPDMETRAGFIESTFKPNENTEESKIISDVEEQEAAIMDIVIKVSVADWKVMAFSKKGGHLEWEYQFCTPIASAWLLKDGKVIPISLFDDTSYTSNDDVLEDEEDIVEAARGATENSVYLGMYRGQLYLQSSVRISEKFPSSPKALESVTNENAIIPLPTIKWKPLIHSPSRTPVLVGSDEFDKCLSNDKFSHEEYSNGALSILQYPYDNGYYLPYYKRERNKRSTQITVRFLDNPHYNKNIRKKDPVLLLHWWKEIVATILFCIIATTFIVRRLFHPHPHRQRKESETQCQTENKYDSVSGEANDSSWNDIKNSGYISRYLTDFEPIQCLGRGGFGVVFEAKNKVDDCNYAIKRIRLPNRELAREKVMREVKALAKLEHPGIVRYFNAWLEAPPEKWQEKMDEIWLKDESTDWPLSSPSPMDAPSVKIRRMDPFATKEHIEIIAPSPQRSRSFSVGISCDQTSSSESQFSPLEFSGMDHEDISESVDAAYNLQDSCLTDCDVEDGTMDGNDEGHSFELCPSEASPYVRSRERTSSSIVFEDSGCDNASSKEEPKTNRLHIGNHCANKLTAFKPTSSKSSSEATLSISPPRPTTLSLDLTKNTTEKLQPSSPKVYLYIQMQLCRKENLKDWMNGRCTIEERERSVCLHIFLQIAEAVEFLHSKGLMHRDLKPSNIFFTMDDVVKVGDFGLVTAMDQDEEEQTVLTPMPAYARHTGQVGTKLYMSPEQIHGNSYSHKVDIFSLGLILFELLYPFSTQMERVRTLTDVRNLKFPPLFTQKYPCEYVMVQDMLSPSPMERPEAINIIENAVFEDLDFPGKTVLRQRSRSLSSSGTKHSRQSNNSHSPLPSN
EIF2AK3 (PERK) catalytic domain (amino acids 536-1116), sequence (Q9NZJ5 536-1116): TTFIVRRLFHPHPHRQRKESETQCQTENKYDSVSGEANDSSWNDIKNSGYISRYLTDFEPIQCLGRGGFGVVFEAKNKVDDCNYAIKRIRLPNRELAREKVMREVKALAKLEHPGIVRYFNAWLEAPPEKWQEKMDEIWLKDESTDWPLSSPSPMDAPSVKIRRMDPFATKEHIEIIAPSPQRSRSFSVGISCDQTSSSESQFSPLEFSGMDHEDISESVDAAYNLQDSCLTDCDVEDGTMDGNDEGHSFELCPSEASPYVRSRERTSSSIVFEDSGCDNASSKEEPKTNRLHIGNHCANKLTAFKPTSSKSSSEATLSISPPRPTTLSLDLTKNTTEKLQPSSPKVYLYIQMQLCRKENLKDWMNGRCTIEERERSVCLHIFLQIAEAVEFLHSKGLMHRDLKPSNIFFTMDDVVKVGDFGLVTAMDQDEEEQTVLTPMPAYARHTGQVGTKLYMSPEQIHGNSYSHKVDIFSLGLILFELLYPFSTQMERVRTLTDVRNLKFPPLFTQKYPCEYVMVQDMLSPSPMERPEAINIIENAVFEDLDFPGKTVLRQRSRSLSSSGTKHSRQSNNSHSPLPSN

In general, IC50 refers to the midpoint of a concentration-inhibition curve. As to `Cc1cc(NC(=O)Oc2ccccc2)ccc1-c1cnc(N)c(C(=O)NC(C)C)c1` [Example 219, phenyl (4-(6-amino-5-(isopropylcarbamoyl)pyridin-3-yl)-3-methylphenyl)carbamate], the IC50 in assay [1] fell in the range of 1000 to 2000 nM; at PERK, 1 to 2 µM.
